Results from paper PMC11893521, “Examining Farnesyltransferase Interaction With Cell‐Permeable CaaX Peptides and the Role of the CaaX Motif in Biological Activity” (Journal of Peptide Science, 2025).
Peptide text beside a SMILES is read from it.

Columns and labels:
[1] = target: T1, rFTase (Rattus norvegicus, UniProt Q02293+Q04631); assay: Mass spectrometry-based farnesylation assay (rFTase); type: biochemical; conditions: each peptide 18 h at 37°C with rFTase and FPP, LC-ESI-MS
T1 construct: purchased Jena Bioscience PR-102
Description: […] CaaX‐1 or scrambled control was incubated with 50‐nM recombinantly expressed hFTase or rFTase (Jena Bioscience, Cat#PR‐102) and 10‐μM farnesyl pyrophosphate (FPP) in reaction buffer (50‐mM Tris HCl pH 7.5, 5‐mM DTT, 5‐mM MgCl2, 10‐μM ZnCl2, and 0.2% n‐octyl‐beta‐D‐glucopyranoside) at 37°C for 18 h. Afterwards, the reaction mixture was desalted via C18 ZipTips (Merck Millipore). For this, ZipTips were washed with ACN and equilibrated in 0.1% FA in H2O. Then, the column was loaded with the reaction solution and subsequently washed with 0.1% FA in H2O and 5% MeOH in H2O each supplemented with 0.1% FA. Elution was performed using 50% ACN with 0.1% FA, and the eluted solution was analyzed by RP‐HPLC using a linear gradient of 10%–60% ACN in H2O with 0.1% FA or TFA using a flow rate of 0.6 or 1.0 mL/min, respectively, and by ESI‐MS analysis (LTQ‐XL, Thermo Scientific, Waltham, Massachusetts, USA).

[2] = tested on: HeLa cells; assay: Resazurin-based cytotoxicity assay; type: cell-based; conditions: serum-free medium, 24 h, triplicate (n = 3)
Description: Cytotoxicity of the peptides to HeLa cells were investigated using a resazurin‐based cytotoxicity assay (Sigma Aldrich). For this, 14,000 HeLa cells were seeded in a 96‐well plate and grown in complete medium at 37°C to 80%–90% subconfluency. Cells were treated with different peptide dilutions in serum‐free medium at 37°C for 24 h. Untreated cells served as negative control and cells treated with 70% ethanol for 10 min as positive control. Cells were washed with PBS and subsequently incubated with a 10% resazurin solution in serum‐free medium for ~1 h. To determine the viability of the cells, the fluorescence was measured at 595 nm after excitation at 550 nm using a Tecan infinite M200 plate reader.

Compound	farnesylation by rFTase (CaaX-1 versus scrambled controls) [1]	cytotoxicity to HeLa cells at 100 μM [2]
CC[C@H](C)[C@H](N)C(=O)N[C@H](C(=O)N[C@@H](Cc1ccccc1)C(=O)N[C@@H](CCCNC(=N)N)C(=O)N[C@@H](CCCCN)C(=O)N[C@@H](CCCCN)C(=O)N[C@@H](CC(C)C)C(=O)N[C@@H](CCCNC(=N)N)C(=O)N[C@@H](CCCCN)C(=O)N[C@@H](CCCCN)C(=O)N[C@@H](CS)C(=O)N[C@@H](CO)C(=O)N[C@@H](CCCCN)C(=O)NCC(=O)N[C@@H](CC(C)C)C(=O)N[C@H](C(=O)N[C@@H](CCCNC(=N)N)C(=O)N[C@@H](CCCNC(=N)N)C(=O)N[C@@H](CC(N)=O)C(=O)N[C@@H](CCSC)C(=O)O)C(C)C)[C@@H](C)O [scrCaaX‐1] (H-ITFRKKLRKKCSKGLVRRNM-OH)	lack of catalytic conversion	–
CC[C@H](C)[C@H](NC(=O)[C@H](CS)NC(=O)[C@H](CCCCN)NC(=O)[C@H](CCCCN)NC(=O)[C@H](CC(N)=O)NC(=O)[C@H](CCCNC(=N)N)NC(=O)[C@H](Cc1ccccc1)NC(=O)[C@H](CCCCN)NC(=O)[C@H](CCCNC(=N)N)NC(=O)[C@H](CC(C)C)NC(=O)[C@H](CCCNC(=N)N)NC(=O)[C@H](CCCCN)NC(=O)[C@H](CCCNC(=N)N)NC(=O)[C@H](CC(C)C)NC(=O)CN)C(=O)N[C@@H](CCCCN)C(=O)N[C@H](C(=O)N[C@@H](CCSC)C(=O)N[C@H](C(=O)N[C@@H](CO)C(=O)O)[C@@H](C)O)C(C)C [CaaX‐1hscr] (H-GLRKRLRKFRNKKCIKVMTS-OH)	lack of catalytic conversion	slight toxicity
